Data as given in ChEMBL document CHEMBL3045653, “A novel amino acid substitution Ala-122-Tyr in ALS confers high-level and broad resistance across ALS-inhibiting herbicides” (Pest Manag Sci, 2012).
pIC50: −log10 of the molar value.

Molecular target: T1, Acetolactate synthase (Raphanus raphanistrum, UniProt J7HAW4)
T1 sequence (J7HAW4 whole entry): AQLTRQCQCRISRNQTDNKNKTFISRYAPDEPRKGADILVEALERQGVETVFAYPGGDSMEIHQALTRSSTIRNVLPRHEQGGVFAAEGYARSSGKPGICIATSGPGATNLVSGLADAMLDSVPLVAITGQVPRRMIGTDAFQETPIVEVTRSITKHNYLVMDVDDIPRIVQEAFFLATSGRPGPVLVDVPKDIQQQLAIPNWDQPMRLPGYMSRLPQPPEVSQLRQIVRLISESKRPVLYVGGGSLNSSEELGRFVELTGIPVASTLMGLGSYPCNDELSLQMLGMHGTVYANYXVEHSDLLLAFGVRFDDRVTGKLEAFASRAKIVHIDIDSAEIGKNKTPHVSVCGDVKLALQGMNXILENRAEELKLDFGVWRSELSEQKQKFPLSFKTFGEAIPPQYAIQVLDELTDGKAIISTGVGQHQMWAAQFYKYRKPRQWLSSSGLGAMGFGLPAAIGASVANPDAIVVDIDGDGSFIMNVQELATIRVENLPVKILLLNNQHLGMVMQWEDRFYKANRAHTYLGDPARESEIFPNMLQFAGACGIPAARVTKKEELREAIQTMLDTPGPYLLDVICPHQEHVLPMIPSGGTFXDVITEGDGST
Assay: Inhibition of ALS in ALS-herbicide-susceptible Raphanus raphanistrum […] (wild radish)
Details: pooled result: one value given for 2 cell lines, strains, targets or settings; read-out: I50

In the case of Cc1cc(C)nc(NC(=O)NS(=O)(=O)c2ccccc2C(=O)O)n1 [SULFOMETURON], the pIC50 was 7.64.
